Activity calls are given as the source filed them. The rule behind the calls is not given here.
Each compound was assayed against T1, von Hippel-Lindau disease tumor suppressor/Bromodomain-containing protein 4 (Homo sapiens, UniProt O60885+P40337) (assay: Protac activity at VHL E3 ligase/BRD4 in HEK293 cells assessed as BRD4 degradation by HiBiT assay relative to control). Conditions: not given.
Type: cell-based

T1 sequence (P40337 whole entry, looked up, other chains not shown): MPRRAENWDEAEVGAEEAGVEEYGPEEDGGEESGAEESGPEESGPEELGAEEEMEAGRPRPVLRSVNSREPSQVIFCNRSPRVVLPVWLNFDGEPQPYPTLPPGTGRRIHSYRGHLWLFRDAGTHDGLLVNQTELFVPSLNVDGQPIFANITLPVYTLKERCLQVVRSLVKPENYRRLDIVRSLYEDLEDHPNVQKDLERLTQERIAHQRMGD

Activity [%]	Structure (SMILES)
25	Cc1ncsc1-c1ccc(CNC(=O)[C@@H]2C[C@@H](O)CN2C(=O)[C@@H](NC(=O)COCCOCCOCCNC(=O)C[C@@H]2N=C(c3ccc(Cl)cc3)c3c(sc(C)c3C)-n3c(C)nnc32)C(C)(C)C)cc1

These compounds were tested on HEK293 (assay: Cytotoxicity against HEK293 cells assessed as cell viability by CellTiter-Glo based assay). Conditions: human.
Type: toxicity

Structure (SMILES)	Activity
Cc1ncsc1-c1ccc(CNC(=O)[C@@H]2C[C@@H](O)CN2C(=O)[C@@H](NC(=O)COCCOCCOCCNC(=O)C[C@@H]2N=C(c3ccc(Cl)cc3)c3c(sc(C)c3C)-n3c(C)nnc32)C(C)(C)C)cc1	Non-Toxic
Cc1sc2c(c1C)C(c1ccc(Cl)cc1)=N[C@@H](CC(=O)O)c1nnc(C)n1-2	Non-Toxic
Cc1sc2c(c1C)C(c1ccc(Cl)cc1)=N[C@@H](CC(=O)NCCCCCC(=O)O)c1nnc(C)n1-2	Non-Toxic

These compounds were tested against T1, von Hippel-Lindau disease tumor suppressor/Bromodomain-containing protein 4 (assay: Protac activity at VHL E3 ligase/BRD4 in HEK293 cells assessed as BRD4 degradation by HiBiT assay). Conditions: not given.
Type: cell-based

Activity	pDC50	Structure (SMILES)
Active		Cc1ncsc1-c1ccc(CNC(=O)[C@@H]2C[C@@H](O)CN2C(=O)[C@@H](NC(=O)COCCOCCOCCNC(=O)C[C@@H]2N=C(c3ccc(Cl)cc3)c3c(sc(C)c3C)-n3c(C)nnc32)C(C)(C)C)cc1
Active		Cc1sc2c(c1C)C(c1ccc(Cl)cc1)=N[C@@H](CC(=O)N1CCN(CC#Cc3ccc4c(c3)CN(C3CCC(=O)NC3=O)C4=O)CC1)c1nnc(C)n1-2 (stereo in doubt)
	6.8	Cc1ncsc1-c1ccc(CNC(=O)[C@@H]2C[C@@H](O)CN2C(=O)[C@@H](NC(=O)CCCCCCNC(=O)C[C@@H]2N=C(c3ccc(Cl)cc3)c3c(sc(C)c3C)-n3c(C)nnc32)C(C)(C)C)cc1 (stereo in doubt; 7P) [listing 1 of 2 here]
	6.2	Cc1ncsc1-c1ccc(CNC(=O)[C@@H]2C[C@@H](O)CN2C(=O)[C@@H](NC(=O)CN2CCN(C(=O)CCCCCNC(=O)C[C@@H]3N=C(c4ccc(Cl)cc4)c4c(sc(C)c4C)-n4c(C)nnc43)CC2)C(C)(C)C)cc1 (stereo in doubt; 8P) [listing 1 of 2 here]
	7.4	Cc1sc2c(c1C)C(c1ccc(Cl)cc1)=N[C@@H](CC(=O)NCCCCCC(=O)NCCCC#Cc1cccc3c1CN(C1CCC(=O)NC1=O)C3=O)c1nnc(C)n1-2 (stereo in doubt; 9P) [listing 1 of 2 here]
	9.8	Cc1sc2c(c1C)C(c1ccc(Cl)cc1)=N[C@@H](CC(=O)NCCCCCC(=O)N1CCN(CCCC3CCN(c4ccc5c(c4)CN(C4CCC(=O)NC4=O)C5=O)CC3)CC1)c1nnc(C)n1-2 (stereo in doubt; 10P) [listing 1 of 2 here]
	9.7	Cc1sc2c(c1C)C(c1ccc(Cl)cc1)=N[C@@H](CC(=O)N1CCN(CCCC3CCN(c4ccc5c(c4)CN(C4CCC(=O)NC4=O)C5=O)CC3)CC1)c1nnc(C)n1-2 (stereo in doubt; 11P) [listing 1 of 2 here]

What follows are compounds tested against T1, von Hippel-Lindau disease tumor suppressor/Bromodomain-containing protein 4 (assay: Protac activity at VHL E3 ligase/BRD4 in HEK293 cells assessed as degradation maximum by HiBiT assay relative to control). Conditions: not given.
Type: cell-based

Emax [%]	Structure (SMILES)
96	Cc1ncsc1-c1ccc(CNC(=O)[C@@H]2C[C@@H](O)CN2C(=O)[C@@H](NC(=O)CCCCCCNC(=O)C[C@@H]2N=C(c3ccc(Cl)cc3)c3c(sc(C)c3C)-n3c(C)nnc32)C(C)(C)C)cc1 (stereo in doubt)
101	Cc1ncsc1-c1ccc(CNC(=O)[C@@H]2C[C@@H](O)CN2C(=O)[C@@H](NC(=O)CN2CCN(C(=O)CCCCCNC(=O)C[C@@H]3N=C(c4ccc(Cl)cc4)c4c(sc(C)c4C)-n4c(C)nnc43)CC2)C(C)(C)C)cc1 (stereo in doubt)
100	Cc1sc2c(c1C)C(c1ccc(Cl)cc1)=N[C@@H](CC(=O)N1CCC(CCN3CCC4(CC3)CCN(c3ccc5c(c3)CN(C3CCC(=O)NC3=O)C5=O)CC4)CC1)c1nnc(C)n1-2 (stereo in doubt)
100	Cc1sc2c(c1C)C(c1ccc(Cl)cc1)=N[C@@H](CC(=O)N1CCC3(CC1)CCN(c1ccc4c(c1)CN(C1CCC(=O)NC1=O)C4=O)CC3)c1nnc(C)n1-2 (stereo in doubt)
99	Cc1sc2c(c1C)C(c1ccc(Cl)cc1)=N[C@@H](CC(=O)N1CCC3(CCN(CC4CCN(c5ccc6c(c5)CN(C5CCC(=O)NC5=O)C6=O)CC4)CC3)CC1)c1nnc(C)n1-2 (stereo in doubt)
96	Cc1sc2c(c1C)C(c1ccc(Cl)cc1)=N[C@@H](CC(=O)N1CCN(CC#Cc3ccc4c(c3)CN(C3CCC(=O)NC3=O)C4=O)CC1)c1nnc(C)n1-2 (stereo in doubt)
100	Cc1sc2c(c1C)C(c1ccc(Cl)cc1)=N[C@@H](CC(=O)N1CCN(CC3CCN(c4ccc5c(c4)CN(C4CCC(=O)NC4=O)C5=O)CC3)CC1)c1nnc(C)n1-2 (stereo in doubt)
99	Cc1sc2c(c1C)C(c1ccc(Cl)cc1)=N[C@@H](CC(=O)N1CCN(CCC3CCN(c4ccc5c(c4)CN(C4CCC(=O)NC4=O)C5=O)CC3)CC1)c1nnc(C)n1-2 (stereo in doubt)
100	Cc1sc2c(c1C)C(c1ccc(Cl)cc1)=N[C@@H](CC(=O)N1CCN(CCCC3CCN(c4ccc5c(c4)CN(C4CCC(=O)NC4=O)C5=O)CC3)CC1)c1nnc(C)n1-2 (stereo in doubt)
100	Cc1sc2c(c1C)C(c1ccc(Cl)cc1)=N[C@@H](CC(=O)NCCCCCC(=O)N1CCN(CCCC3CCN(c4ccc5c(c4)CN(C4CCC(=O)NC4=O)C5=O)CC3)CC1)c1nnc(C)n1-2 (stereo in doubt)
93	Cc1sc2c(c1C)C(c1ccc(Cl)cc1)=N[C@@H](CC(=O)NCCCCCC(=O)NCCCC#Cc1cccc3c1CN(C1CCC(=O)NC1=O)C3=O)c1nnc(C)n1-2 (stereo in doubt)
89	Cc1sc2c(c1C)C(c1ccc(Cl)cc1)=N[C@@H](CC(=O)N1CCN(CC3CCN(c4ccc5c(c4)CN(C4CCC(=O)NC4=O)C5=O)CC3)CC1)c1nnc(C)n1-2 (stereo in doubt; 1P)
90	Cc1sc2c(c1C)C(c1ccc(Cl)cc1)=N[C@@H](CC(=O)N1CCC(CCN3CCC4(CC3)CCN(c3ccc5c(c3)CN(C3CCC(=O)NC3=O)C5=O)CC4)CC1)c1nnc(C)n1-2 (stereo in doubt; 2P)
80	Cc1sc2c(c1C)C(c1ccc(Cl)cc1)=N[C@@H](CC(=O)N1CCC3(CCN(CC4CCN(c5ccc6c(c5)CN(C5CCC(=O)NC5=O)C6=O)CC4)CC3)CC1)c1nnc(C)n1-2 (stereo in doubt; 3P)
91	Cc1sc2c(c1C)C(c1ccc(Cl)cc1)=N[C@@H](CC(=O)N1CCN(CC#Cc3ccc4c(c3)CN(C3CCC(=O)NC3=O)C4=O)CC1)c1nnc(C)n1-2 (stereo in doubt; 4P)
79	Cc1sc2c(c1C)C(c1ccc(Cl)cc1)=N[C@@H](CC(=O)N1CCN(CCC3CCN(c4ccc5c(c4)CN(C4CCC(=O)NC4=O)C5=O)CC3)CC1)c1nnc(C)n1-2 (stereo in doubt; 6P)
94	Cc1ncsc1-c1ccc(CNC(=O)[C@@H]2C[C@@H](O)CN2C(=O)[C@@H](NC(=O)CCCCCCNC(=O)C[C@@H]2N=C(c3ccc(Cl)cc3)c3c(sc(C)c3C)-n3c(C)nnc32)C(C)(C)C)cc1 (stereo in doubt; 7P) [listing 2 of 2 here]
80	Cc1ncsc1-c1ccc(CNC(=O)[C@@H]2C[C@@H](O)CN2C(=O)[C@@H](NC(=O)CN2CCN(C(=O)CCCCCNC(=O)C[C@@H]3N=C(c4ccc(Cl)cc4)c4c(sc(C)c4C)-n4c(C)nnc43)CC2)C(C)(C)C)cc1 (stereo in doubt; 8P) [listing 2 of 2 here]
83	Cc1sc2c(c1C)C(c1ccc(Cl)cc1)=N[C@@H](CC(=O)NCCCCCC(=O)NCCCC#Cc1cccc3c1CN(C1CCC(=O)NC1=O)C3=O)c1nnc(C)n1-2 (stereo in doubt; 9P) [listing 2 of 2 here]
99	Cc1sc2c(c1C)C(c1ccc(Cl)cc1)=N[C@@H](CC(=O)NCCCCCC(=O)N1CCN(CCCC3CCN(c4ccc5c(c4)CN(C4CCC(=O)NC4=O)C5=O)CC3)CC1)c1nnc(C)n1-2 (stereo in doubt; 10P) [listing 2 of 2 here]
99	Cc1sc2c(c1C)C(c1ccc(Cl)cc1)=N[C@@H](CC(=O)N1CCN(CCCC3CCN(c4ccc5c(c4)CN(C4CCC(=O)NC4=O)C5=O)CC3)CC1)c1nnc(C)n1-2 (stereo in doubt; 11P) [listing 2 of 2 here]
